Measurements from ChEMBL document CHEMBL3885881, “DrugMatrix”.

Species on record: Rattus norvegicus
Assay: DrugMatrix - Regimen: Daily Repeat
Format: toxicity, organism-based, Sprague-Dawley
Design: regimen Daily Repeat, gender Male, age 6-8 weeks
Details: in vivo, po, […], route oral GAVAGE, dose 1.2 mg/Kg, dose level Low, vehicle .5 % CMC; for ABSOLUTE BASOPHIL / ABSOLUTE EOSINOPHIL / ABSOLUTE LYMPHOCYTE / ABSOLUTE MONOCYTE / ABSOLUTE SEGMENTED NEUTROPHIL / BASOPHIL / EOSINOPHIL / ERYTHROCYTE COUNT / HEMATOCRIT / HEMOGLOBIN / LEUKOCYTE COUNT / LYMPHOCYTE / MEAN CORPUSCULAR HEMOGLOBIN / MEAN CORPUSCULAR HEMOGLOBIN CONCENTRATION / MEAN CORPUSCULAR VOLUME / MONOCYTE / NEUTROPHIL / NUCLEATED RED BLOOD CELLS / PLATELET COUNT: tissue Blood; for ALANINE AMINOTRANSFERASE / ALBUMIN / ALKALINE PHOSPHATASE / ASPARTATE AMINOTRANSFERASE / BLOOD UREA NITROGEN / CARBON DIOXIDE / CHLORIDE / CHOLESTEROL / CREATINE PHOSPHOKINASE / CREATININE / GLUCOSE / LACTATE DEHYDROGENASE / LIPASE / PHOSPHORUS / POTASSIUM / SODIUM / TOTAL BILIRUBIN / TOTAL PROTEIN / URIC ACID: tissue Plasma

## N[C@@H](Cc1ccc(N(CCCl)CCCl)cc1)C(=O)O
72 h, time 3 day
  ABSOLUTE BASOPHIL: 0 CELLS/uL
  ABSOLUTE EOSINOPHIL: 212 CELLS/uL
  ABSOLUTE LYMPHOCYTE: 11254.33 CELLS/uL
  ABSOLUTE MONOCYTE: 0 CELLS/uL
  ABSOLUTE SEGMENTED NEUTROPHIL: 1000.33 CELLS/uL
  BASOPHIL: 0%
  EOSINOPHIL: 1.67%
  ERYTHROCYTE COUNT: 5.5 x10E6/uL
  HEMATOCRIT: 35.4%
  HEMOGLOBIN: 13.5 G/DL
  LEUKOCYTE COUNT: 12.47 x10E3/uL
  LYMPHOCYTE: 90.33%
  MEAN CORPUSCULAR HEMOGLOBIN: 24.53 pg
  MEAN CORPUSCULAR HEMOGLOBIN CONCENTRATION: 38.13 G/DL
  MEAN CORPUSCULAR VOLUME: 64.3 fL
  MONOCYTE: 0%
  NEUTROPHIL: 8%
  NUCLEATED RED BLOOD CELLS: 0 /100WBC
  PLATELET COUNT: 1333.67 x10E3/uL
  ALANINE AMINOTRANSFERASE: 50 u/L
  ALBUMIN: 4.43 G/DL
  ALKALINE PHOSPHATASE: 430.67 u/L
  ASPARTATE AMINOTRANSFERASE: 84.33 u/L
  BLOOD UREA NITROGEN: 15.67 mg/dL
  CARBON DIOXIDE: 24 mmol/L
  CHLORIDE: 105.67 MEQ/L
  CHOLESTEROL: 66.67 mg/dL
  CREATINE PHOSPHOKINASE: 180.33 u/L
  CREATININE: 0.21 mg/dL
  GLUCOSE: 171.33 mg/dL
  LACTATE DEHYDROGENASE: 164 u/L
  LIPASE: 8.33 u/L
  PHOSPHORUS: 13.1 mg/dL
  POTASSIUM: 6.13 MEQ/L
  SODIUM: 147.47 MEQ/L
  TOTAL BILIRUBIN: 0.2 mg/dL
  TOTAL PROTEIN: 6.33 G/DL
  URIC ACID: 2.23 mg/dL
120 h, time 5 day
  ABSOLUTE BASOPHIL: 0 CELLS/uL
  ABSOLUTE EOSINOPHIL: 46.67 CELLS/uL
  ABSOLUTE LYMPHOCYTE: 6013.67 CELLS/uL
  ABSOLUTE MONOCYTE: 20.33 CELLS/uL
  ABSOLUTE SEGMENTED NEUTROPHIL: 619.33 CELLS/uL
  BASOPHIL: 0%
  EOSINOPHIL: 0.67%
  ERYTHROCYTE COUNT: 5.37 x10E6/uL
  HEMATOCRIT: 34.83%
  HEMOGLOBIN: 13.07 G/DL
  LEUKOCYTE COUNT: 6.7 x10E3/uL
  LYMPHOCYTE: 89.67%
  MEAN CORPUSCULAR HEMOGLOBIN: 24.33 pg
  MEAN CORPUSCULAR HEMOGLOBIN CONCENTRATION: 37.53 G/DL
  MEAN CORPUSCULAR VOLUME: 64.87 fL
  MONOCYTE: 0.33%
  NEUTROPHIL: 9.33%
  NUCLEATED RED BLOOD CELLS: 0 /100WBC
  PLATELET COUNT: 1151 x10E3/uL
  ALANINE AMINOTRANSFERASE: 47 u/L
  ALBUMIN: 4.33 G/DL
  ALKALINE PHOSPHATASE: 273.67 u/L
  ASPARTATE AMINOTRANSFERASE: 74.67 u/L
  BLOOD UREA NITROGEN: 14.33 mg/dL
  CARBON DIOXIDE: 29.33 mmol/L
  CHLORIDE: 101.67 MEQ/L
  CHOLESTEROL: 74.67 mg/dL
  CREATINE PHOSPHOKINASE: 206 u/L
  CREATININE: 0.18 mg/dL
  GLUCOSE: 137 mg/dL
  LACTATE DEHYDROGENASE: 89.33 u/L
  LIPASE: 8.67 u/L
  PHOSPHORUS: 11.6 mg/dL
  POTASSIUM: 5.85 MEQ/L
  SODIUM: 147.57 MEQ/L
  TOTAL BILIRUBIN: 0.2 mg/dL
  TOTAL PROTEIN: 6.17 G/DL
  URIC ACID: 0.8 mg/dL
